One may read the GI50 as the concentration giving 50% growth inhibition. By pIC50 is commonly meant −log10 of the IC50, conventionally taken in molar units. A lower pIC50 goes with a large IC50.

The source of these data is patent publication US20090181972A1, “Novel Inhibitors of Cysteine Proteases, the Pharmaceutical Compositions Thereof and their Therapeutic Applications” (priority 2005, published 2009).

The subject of experiment [1] is HCT116 colon cancer cells. The experiment is described as follows: HCT116 cell viability and proliferation assay (MTS). The experiment is classed as cell-based. Particulars: Homo sapiens, HCT-116, 72 hours incubation, mean of three independent experiments, read-out: HCT116 GI50 D3. As for the experimental part: HCT116 colon cancer cells were obtained from ATCC (American Type Culture Collection), and maintained in Mc Coy's 5A medium containing 10% FBS, 3 mM glutamine and 1% penicillin/streptomycin. Cells were incubated at 37° C. in a humidified atmosphere containing 5% CO2.
Cell viability was assayed using the MTS technique in 96-well culture plates (CellTiter 96® Aqueous Non-Radioactive Cell Proliferation Assay, Promega) according to the manufacturer's instructions. MTS (3-(4,5-dimethyl-thiazol-2-yl)-5-(3-carboxymethoxyphenyl)-2-(4-sulfophenyl)-2H-tetra-zolium) is a MTT-derived tetrazolium that is reduced in metabolically active cells into a soluble, cell-permeant formazan. The amount of formazan, detected by its absorbance at 492 nm is proportional to the number of living, metabolically active cells.
10^3 HCT116 cells were seeded per well. 24 hours later, the medium was changed and the cells treated in triplicate with the following concentrations of each compound: 10 μM-3.33 μM-1.11 μM-370 nM-123 nM-41 nM-14 nM and 5 nM. The compounds were diluted in 100% DMSO, whose final concentration on cells was kept at 0.5%.
Cells were incubated with the compounds for 72 hours, and their viability then assayed by the addition of MTS for 2 hours. Absorbance at 492 nm was measured directly from the 96-well culture plates. G150 (Growth Inhibition 50) concentrations for each compound were calculated using a sigmoidal variable slope fit (Prism 4.0, Graphpad Softwares). Values represent mean of three independent experiments.

Experiment [2] concerns PC-3 prostate cancer cells. The experiment in a line: PC3 cell viability and proliferation assay (MTS). The format is cell-based. Particulars: Homo sapiens, PC-3, 72 hours incubation, mean of three independent experiments, read-out: PC3 GI50 D3. As for the experimental part:
PC-3 prostate cancer cells were obtained from ATCC, and maintained in F-12K medium containing 7% FBS and 1% penicillin/streptomycin. Cells were incubated at 37° C. in a humidified atmosphere containing 5% CO2.
Cell viability was assayed using the MTS technique in 96-well culture plates (CellTiter 96® Aqueous Non-Radioactive Cell Proliferation Assay, Promega) according to the manufacturer's instructions. MTS (3-(4,5-dimethyl-thiazol-2-yl)-5-(3-carboxymethoxyphenyl)-2-(4-sulfophenyl)-2H-tetrazolium) is a MTT-derived tetrazolium that is reduced in metabolically active cells into a soluble, cell-permeant formazan. The amount of formazan, detected by its absorbance at 492 nm is proportional to the number of living, metabolically active cells.
2×10^3 PC3 cells were seeded per well. 24 hours later, the medium was changed and the cells treated in triplicate with the following concentrations of each compound: 10 μM-3.33 μM-1.11 μM-370 nM-123 nM-41 nM-14 nM and 5 nM. The compounds were diluted in 100% DMSO, whose final concentration on cells was kept at 0.5%.
Cells were incubated with the compounds for 72 hours, and their viability then assayed by the addition of MTS for 2 hours. Absorbance at 492 nm was measured directly from the 96-well culture plates. GI50 (Growth Inhibition 50) concentrations for each compound were calculated using a sigmoidal variable slope fit (Prism 4.0, Graphpad Softwares). Values represent mean of three independent experiments.

The target in the next experiment is T1, SENP1 (Homo sapiens, UniProt Q9P0U3).
T1 construct: made in house; host or cells: E. coli BL21
T1 sequence (Q9P0U3 1-644): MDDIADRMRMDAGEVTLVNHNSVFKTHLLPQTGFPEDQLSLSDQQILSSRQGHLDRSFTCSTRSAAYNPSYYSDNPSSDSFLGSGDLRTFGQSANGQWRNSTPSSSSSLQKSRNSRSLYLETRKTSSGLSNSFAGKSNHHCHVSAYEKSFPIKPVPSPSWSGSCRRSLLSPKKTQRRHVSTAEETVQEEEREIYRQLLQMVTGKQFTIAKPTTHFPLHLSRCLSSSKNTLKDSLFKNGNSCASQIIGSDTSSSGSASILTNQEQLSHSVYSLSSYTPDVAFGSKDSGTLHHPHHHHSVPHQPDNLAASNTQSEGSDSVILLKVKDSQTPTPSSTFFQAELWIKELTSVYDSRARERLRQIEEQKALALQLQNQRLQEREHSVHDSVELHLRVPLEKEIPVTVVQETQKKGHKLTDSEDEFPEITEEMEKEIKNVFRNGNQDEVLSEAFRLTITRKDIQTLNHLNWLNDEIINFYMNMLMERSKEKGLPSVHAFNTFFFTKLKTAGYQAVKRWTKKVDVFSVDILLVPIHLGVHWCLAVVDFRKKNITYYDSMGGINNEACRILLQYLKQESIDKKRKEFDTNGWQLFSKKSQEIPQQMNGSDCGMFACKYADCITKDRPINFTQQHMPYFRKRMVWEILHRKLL
The experiment in a line: SENP1 activity assay. The format is biochemical. Particulars: MBP-SENP1 1.8 nM, 200 nM SUMO-AMC; pre-incubated 30 minutes at 25° C., 60 minutes at 37° C.; sigmoidal fit. As for the experimental part:
The cDNA encoding SENP1 was obtained by PCR amplification from placenta mRNA. SENP1 cDNA was subcloned by PCR into a bacterial expression vector (pMAL-C2X; New England BioLabs, Inc). The sequence was ascertained by sequencing of the entire open reading frame. pMAL-C2-SENP1 was transformed into BL21 cells and grown in LB-ampicillin medium supplemented with glucose (2 g.l^−1). Fusion protein expression was induced by IPTG (0.5 mM). Bacterial cell lysates were harvested and lyzed in lysis buffer (Tris HCl 20 mM pH 7.4; 1 mM EDTA; 200 mM NaCl; 0.5% Triton X-100; 10 % glycerol; Protease Inhibitor Cocktail) followed by sonication. Proteins were affinity purified on amylose affinity resin (New England BioLabs, Inc). Bound materials were extensively washed in wash buffer (20 mM Tris HCl pH 7.4; 200 mM NaCl; 1 mM EDTA; 0.5% Triton X-100; 10% glycerol) and eluted from the resin in 10 mM maltose-containing wash buffer. Proteins were dialyzed in dialysis buffer (Tris HCl pH 7.6 20 mM; NaCl 200 mM; DTT 1 mM; EDTA 1 mM; 10% Glycerol). Proteins purifications were analyzed on 4-12% NuPAGE (Invitrogen).
MBP-SENP1 was diluted in SENP1 buffer (50 mM Tris HCl; 0.5 mM EDTA; 5 mM DTT; 0.01 % Triton X-100; Bovine Serum Albumin 0.05 mg.ml^−1 pH 7.6). Compounds stocks (100 mM) were stored at −20° C. in DMSO. Compounds were tested at the following final concentrations: 100 μM; 33.3 μM; 11.1 μM; 3.7 μM; 1.23 μM; 412 nM; 137 nM; 45.7 nM; 15.2 nM; 5 nM.
Reactions were performed as duplicates in Black LJL 96 well plates (HE microplates; Molecular Devices; 20 μl final reaction volume). The substrate concentration for SENP1 was 200 nM SUMO-AMC (Chem. Biol., 2003, 10, p. 837-846) (Boston Biochem). The concentration of the enzyme (SENP1) in specificity assays was 1.8 nM. The concentrations were determined in order to perform specificity assays under initial velocities at fixed substrate concentration. Compounds were pre-incubated with enzymes for 30 minutes at 25° C. Reactions were initiated by addition of substrate to the plates containing the enzymes (+/− compounds) diluted in assay buffer. Reactions were incubated for 60 minutes at 37° C. Reactions were stopped by adding acetic acid (100 mM final). Readings were performed on a Pherastar Fluorescent Reader (BMG). λ Emission 380 nm; λ Excitation=460 nm. Data (mean values +/− standard deviation) were analyzed as % of control (no compound) and plotted as percentage versus the Log of the compound concentration using GraphPad (Prism). Data were fitted to a sigmoidal model (variable slope).

For the next experiment, the target named is T2, Caspase 3 (Homo sapiens, UniProt P42574).
T2 sequence (P42574 29-175 limits assumed): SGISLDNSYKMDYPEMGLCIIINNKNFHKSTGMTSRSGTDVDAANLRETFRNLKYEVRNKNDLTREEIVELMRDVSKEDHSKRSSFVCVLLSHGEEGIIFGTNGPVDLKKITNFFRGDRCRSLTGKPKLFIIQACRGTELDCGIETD
T2 sequence (P42574 176-277 limits assumed): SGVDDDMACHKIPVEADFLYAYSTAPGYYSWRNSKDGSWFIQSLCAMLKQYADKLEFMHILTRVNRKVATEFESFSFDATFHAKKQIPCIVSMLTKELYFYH
The experiment in a line: Caspase 3 activity assay. The format is biochemical. As to conditions: 500 nM Ac-DEVD-AMC, 3.2 nM enzyme; pre-incubated 30 minutes at 25° C., 60 minutes at 37° C.; sigmoidal fit. As for the experimental part:
Caspase 3 was diluted in Caspase 3 buffer (100 mM Hepes pH 7.5; 10% sucrose; 0.1% CHAPS). Compounds stocks (100 mM) were stored at −20° C. in DMSO. Compounds were tested at the following final concentrations: 100 μM; 33.3 μM; 11.1 μM; 3.7 μM; 1.23 μM; 412 nM; 137 nM; 45.7 nM; 15.2 nM; 5 nM. Reactions were performed as duplicates in Black LJL 96 well plates (HE microplates; Molecular Devices; 20 μl final reaction volume). The substrate concentration for caspase 3 specificity assay was 500 nM (Ac-DEVD-AMC; Promega). The concentration of the enzyme (Caspase 3) in specificity assays was 3.2 nM. The concentrations were determined in order to perform specificity assays under initial velocities at fixed substrate concentration. Compounds were pre-incubated with enzymes for 30 minutes at 25° C. Reactions were initiated by addition of substrate to the plates containing the enzymes (+/− compounds) diluted in assay buffer. Reactions were incubated for 60 minutes at 37° C. Reactions were stopped by adding acetic acid (100 mM final). Readings were performed on a Pherastar Fluorescent Reader (BMG). δ Emission 380 nm; δ Excitation=460 nm. Data (mean values +/− standard deviation) were analyzed as % of control (no compound) and plotted as percentage versus the Log of the compound concentration using GraphPad (Prism). Data were fitted to a sigmoidal model (variable slope).

pIC50: −log10 of the molar value.

For `O=C1c2ccccc2-c2nc3nnc(CO)n3nc21` [Example 1h/A, 1-Hydroxymethyl-2,3,4,10,10a-pentaaza-cyclopenta[b]fluoren-9-one], the results for the GI50 in experiment [1] and in experiment [2] were 2050 nM and 4000 nM, respectively. In addition, the negative-log IC50 (pIC50) at SENP1 was below 4.00.
For the molecule `Nc1nnc2nc3c(nn12)-c1ccccc1C3=O` [Example 1c/B, 3-Amino-1,2,3a,4,10-pentaaza-cyclopenta[b]fluoren-9-one], the GI50 in experiment [1] came to 981 nM; in experiment [2] it was 3170 nM. At Caspase 3, this molecule showed a negative logarithm of the IC50 (pIC50) of 6.67.
On to `Cc1nnc2nc3c(nn12)C(=O)c1ccccc1-3` [Example 1b/A, 1-Methyl-2,3,4,10,10a-pentaaza-cyclopenta[b]fluoren-9-one], for which the GI50 in experiment [1] turned out to be 1300 nM; in experiment [2] it was 7090 nM. The molecule also gave a pIC50 against SENP1 below 4.00.
